Tests used:
[1] = tested on: barnyardgrass; experiment: Test A pre-/postemergence greenhouse test; assay type: in vivo, Echinochloa crus-galli; conditions: for Barnyardgrass plant response rating: 0 to 100 scale
Method in brief: (§1)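 Two application timings were run side by side in the greenhouse. Before emergence, compound went onto the soil surface of loam–sand pots as a directed spray; after emergence, plants at 2–10 cm and the one- to two-leaf stage were treated. Visual injury versus controls was rated at approximately day ten.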

[2] = tested on: redroot pigweed; experiment: Test A pre-/postemergence greenhouse test; assay type: in vivo, Amaranthus retroflexus; conditions: for Pigweed plant response rating: 0 to 100 scale
Method in brief: as §1

[3] = tested on: velvetleaf; experiment: Test A pre-/postemergence greenhouse test; assay type: in vivo, Abutilon theophrasti; conditions: for Velvetleaf plant response rating: 0 to 100 scale
Method in brief: as §1

[4] = tested on: downy brome; experiment: Test C pre-/postemergence test; assay type: in vivo, Bromus tectorum
Method in brief: (§2)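 Test chemicals were formulated with surfactant in a non-phytotoxic solvent and sprayed both on freshly planted seeds (preemergence) and on 1- to 4-leaf plants of 2–18 cm (postemergence). Flooded-paddy pots received compound directly into 3 cm of standing water, maintained for the test.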

[5] = tested on: green foxtail; experiment: Test C pre-/postemergence test; assay type: in vivo, Setaria viridis
Method in brief: as §2

[6] = tested on: wild oat; experiment: Test C pre-/postemergence test; assay type: in vivo, Avena fatua
Method in brief: as §2

[7] = tested on: Surinam grass; experiment: Test C pre-/postemergence test; assay type: in vivo, Brachiaria decumbens; conditions: for Surinam Grass plant response rating: preemergence, scale 0 (no effect) to 100 (complete control)
Method in brief: as §2

[8] = tested on: cocklebur; experiment: Test C pre-/postemergence test; assay type: in vivo, Xanthium strumarium
Method in brief: as §2

[9] = tested on: crabgrass; experiment: Test C pre-/postemergence test; assay type: in vivo, Digitaria sanguinalis
Method in brief: as §2

[10] = tested on: giant foxtail; experiment: Test C pre-/postemergence test; assay type: in vivo, Setaria faberii
Method in brief: as §2

[11] = tested on: johnsongrass; experiment: Test C pre-/postemergence test; assay type: in vivo, Sorghum halepense
Method in brief: as §2

[12] = tested on: kochia; experiment: Test C pre-/postemergence test; assay type: in vivo, Kochia scoparia
Method in brief: as §2

[13] = tested on: lambsquarters; experiment: Test C pre-/postemergence test; assay type: in vivo, Chenopodium album
Method in brief: as §2

[14] = tested on: eastern black nightshade; experiment: Test C pre-/postemergence test; assay type: in vivo, Solanum ptycanthum
Method in brief: as §2

[15] = tested on: common ragweed; experiment: Test C pre-/postemergence test; assay type: in vivo, Ambrosia elation
Method in brief: as §2

[16] = tested on: velvetleaf; experiment: Test C pre-/postemergence test; assay type: in vivo, Abutilon theophrasti; conditions: for Velvetleaf plant response rating: preemergence, scale 0 (no effect) to 100 (complete control)
Method in brief: as §2

[17] = tested on: rice; experiment: Test C flooded paddy test; assay type: in vivo, Oryza sativa; conditions: Flood
Method in brief: (§3)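 Greenhouse pots flooded to 3 cm above soil at time of treatment received compound via the water, which stayed at that level.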

[18] = tested on: duck salad; experiment: Test C flooded paddy test; assay type: in vivo, Heteranthera limosa; conditions: Flood
Method in brief: as §3

[19] = Postemergence, 125 g ai/ha, 0 is no effect, 100 is complete control
[20] = Postemergence, 500 g ai/ha, 0 is no effect, 100 is complete control
[21] = Preemergence, 125 g ai/ha, 0 no effect, 100 complete control
[22] = Preemergence, 500 g ai/ha, 0 to 100 scale where 0 is no effect and 100 is complete control
[23] = 31 g ai/ha, Preemergence, scale 0 to 100
[24] = 62 g ai/ha, preemergence, scale 0 (no effect) to 100 (complete control)
[25] = preemergence, 125 g ai/ha, scale 0 (no effect) to 100 (complete control)
[26] = 31 g ai/ha, scale 0 to 100 (0 no effect, 100 complete control)
[27] = 62 g ai/ha, scale 0 to 100, 0 no effect, 100 complete control, 13 to 15 days
[28] = 125 g ai/ha, scale 0 to 100, 0 no effect, 100 complete control, 13 to 15 days
[29] = 250 g ai/ha, scale 0 to 100 (0 no effect, 100 complete control)

Cc1cc[n+]([O-])c(S(=O)(=O)C(C)c2c(C(F)(F)F)nn(C)c2OC(F)F)c1 (stereo not drawn) [Compound 11]
75: Ragweed plant response rating [15, 24]
10: Pigweed plant response rating [2, 19] | Bromegrass, Downy plant response rating [4, 24]
70: Barnyardgrass plant response rating [1, 19] | Velvetleaf plant response rating ([16]; 62 g ai/ha) | Plant response rating, Rice [17, 27]
85: Plant response rating, Ducksalad [18, 28]
80: Barnyardgrass plant response rating [1, 20] | Velvetleaf plant response rating [3, 21] | Foxtail, Green plant response rating [5, 23] | Plant response rating (0 to 100), Oat, Wild ([6]; Preemergence, 250 g ai/ha) | Surinam Grass plant response rating ([7]; 62 g ai/ha) | Foxtail, Giant plant response rating [10, 23] | Plant response rating, Rice [17, 28] | Plant response rating, Rice [17, 29]
0: Bromegrass, Downy plant response rating [4, 23] | Oat, Wild plant response rating [6, 23] | Oat, Wild plant response rating [6, 24] | Cocklebur plant response rating [8, 23] | Cocklebur plant response rating [8, 24] | Plant response rating (0 to 100), Cocklebur ([8]; Preemergence, 250 g ai/ha) | Cocklebur plant response rating [8, 25] | Plant response rating, Rice [17, 26] | Plant response rating, Ducksalad [18, 26]
55: Ragweed plant response rating [15, 23]
50: Bromegrass, Downy plant response rating [4, 25]
60: Pigweed plant response rating [2, 20] | Velvetleaf plant response rating [3, 20] | Plant response rating (0 to 100), Bromegrass, Downy ([4]; Preemergence, 250 g ai/ha) | Kochia plant response rating [12, 23]
95: Surinam Grass plant response rating ([7]; 125 g ai/ha) | Nightshade plant response rating [14, 23] | Ragweed plant response rating [15, 25]
100: Plant response rating, Barnyardgrass [1, 22] | Pigweed plant response rating [2, 21] | Plant response rating, Pigweed [2, 22] | Foxtail, Green plant response rating [5, 24] | Plant response rating (0 to 100), Foxtail, Green ([5]; Preemergence, 250 g ai/ha) | Foxtail, Green plant response rating [5, 25] | Plant response rating (0 to 100), Surinam Grass ([7]; Preemergence, 250 g ai/ha) | Crabgrass, Large plant response rating [9, 23] | Crabgrass, Large plant response rating [9, 24] | Plant response rating (0 to 100), Crabgrass, Large ([9]; Preemergence, 250 g ai/ha) | Crabgrass, Large plant response rating [9, 25] | Plant response rating (0 to 100), Foxtail, Giant ([10]; Preemergence, 250 g ai/ha) | Johnsongrass plant response rating [11, 23] | Johnsongrass plant response rating [11, 24] | Plant response rating (0 to 100), Johnsongrass ([11]; Preemergence, 250 g ai/ha) | Johnsongrass plant response rating [11, 25] | Kochia plant response rating [12, 24] | Plant response rating (0 to 100), Kochia ([12]; Preemergence, 250 g ai/ha) | Kochia plant response rating [12, 25] | Lambsquarters plant response rating [13, 23] | Lambsquarters plant response rating [13, 24] | Plant response rating (0 to 100), Lambsquarters ([13]; Preemergence, 250 g ai/ha) | Lambsquarters plant response rating [13, 25] | Nightshade plant response rating [14, 24] | Plant response rating (0 to 100), Nightshade ([14]; Preemergence, 250 g ai/ha) | Nightshade plant response rating [14, 25] | Plant response rating (0 to 100), Ragweed ([15]; Preemergence, 250 g ai/ha) | Plant response rating (0 to 100), Velvetleaf ([16]; Preemergence, 250 g ai/ha) | Velvetleaf plant response rating ([16]; 125 g ai/ha)
20: Oat, Wild plant response rating [6, 25]
65: Plant response rating, Ducksalad [18, 27]
90: Barnyardgrass plant response rating [1, 21] | Plant response rating, Velvetleaf [3, 22] | Plant response rating, Ducksalad [18, 29]
40: Velvetleaf plant response rating [3, 19]
98: Foxtail, Giant plant response rating [10, 24]

Reference: patent US20100298141A1, “SUBSTITUTED PYRIDINE N-OXIDE HERBICIDES” (E. I. DU PONT DE NEMOURS AND COMPANY, priority 2007, published 2010)
